Data from US8722742B2, “Chemical compounds having antiviral activity against Dengue virus and other Flaviviruses” (Centro de Ingenieria Genetica y Biotecnologia, priority 2008, dated 2014).

System: DEN2 virus
Assay: Plaque inhibition assay in Vero cells
Assay type: cell-based, Dengue virus serotype 2
Details: Dengue virus, 120 h
Method: Vero cells were grown in 24-wells plates until the monolayer reached approximately 90% confluence and two washes of the monolayer were done with medium MEM without SFB. Preparations of DEN2 virus equivalent to a multiplicity of infection of 0.1 were preincubated in MEM medium with and without presence of chemical compounds (100 uM) for about 1 hour at room temperature. Then, the virus/compounds mixture and virus/control mixture were incubated with monolayers for 1 hour at 37° C. After finished incubation, the cells were washed again and incubated during 5 days at 37° C. in high-density medium (MEM supplemented with non-essential amino acids, SFB 1%, carboxymethylcellulose 1%) to facilitate formation of lysis plaques. Blue Black Naphtol 0.1% in sodium acetate 0.15 mol/L was used for staining. In each experiment two replics were tested for each point and three independent determinations were done. The percentage of infection inhibition was calculated according to the following expression: […]

SMILES | inhibition at 100 µM
O=c1c2cc3c(=O)n(CCCn4ccnc4)c(=O)c3cc2c(=O)n1CCCn1ccnc1 | 0 to 30%
O=C(CC1C(=O)c2ccccc2C1=O)Oc1ccc(-c2ccc(OC(=O)CN3C(=O)c4ccccc4C3=O)cc2)cc1 | 0 to 30%
O=S(=O)(NCc1ccccc1)c1ccc(S(=O)(=O)NC2CCCCC2)cc1 [C-SIJ01002] | 70 to 100%
O=S(=O)(NCc1ccccc1)c1ccc(S(=O)(=O)NC2CC2)cc1 [C-SIJ01003] | 30 to 100%
O=S(=O)(NCc1ccc2c(c1)OCO2)c1ccc(S(=O)(=O)NC2CCCCC2)cc1 [C-SIJ01006] | 70 to 100%
O=S(=O)(NCc1ccc2c(c1)OCO2)c1ccc(S(=O)(=O)NC2CC2)cc1 [C-SIJ01008] | 30 to 100%
O=S(=O)(NCCC1=CCCCC1)c1ccc(S(=O)(=O)NCc2ccc3c(c2)OCO3)cc1 [C-SIJ01009] | 70 to 100%
O=S(=O)(NCc1ccco1)c1ccc(S(=O)(=O)NC2CCCCC2)cc1 [C-SIJ01020] | 70 to 100%
CC(=O)N1CCN(S(=O)(=O)c2ccc(S(=O)(=O)NC3CCCCC3)cc2)CC1 [C-SIJ01023] | 70 to 100%
CCCCNS(=O)(=O)c1ccc(S(=O)(=O)N2CCN(C(C)=O)CC2)cc1 [C-SIJ01026] | 30 to 100%
O=S(=O)(NCCc1ccccc1)c1ccc(S(=O)(=O)N2CCCCC2)cc1 [C-SIJ01031] | 70 to 100%
O=S(=O)(NCc1ccc(F)cc1)c1ccc(S(=O)(=O)N2CCCCC2)cc1 [C-SIJ01033] | 30 to 100%
O=S(=O)(NCC1CC1)c1ccc(S(=O)(=O)N2CCCCC2)cc1 [C-SIJ01034] | 30 to 100%
O=S(=O)(NC(c1ccccc1)c1ccccc1)c1ccc(S(=O)(=O)N2CCCCC2)cc1 [C-SIJ01039] | 70 to 100%
O=S(=O)(NCCO)c1ccc(S(=O)(=O)N2CCCCC2)cc1 [C-SIJ01042] | 70 to 100%
CC(C)CNS(=O)(=O)c1ccc(S(=O)(=O)N2C(C)CCCC2C)cc1 (stereo not shown) [C-SIJ01045] | 30 to 100%
CC1CCCC(C)N1S(=O)(=O)c1ccc(S(=O)(=O)NCCc2ccncc2)cc1 (stereo not shown) [C-SIJ01047] | 70 to 100%
CC1CCCC(C)N1S(=O)(=O)c1ccc(S(N)(=O)=O)cc1 (stereo not shown) [C-SIJ01051] | 30 to 100%
COC(CNS(=O)(=O)c1ccc(S(=O)(=O)N2CCOCC2)cc1)OC [C-SIJ01056] | 70 to 100%
CC(C)(C)C(=O)CNS(=O)(=O)c1ccc(S(=O)(=O)N2CCOCC2)cc1 [C-SIJ01062] | 70 to 100%
O=S(=O)(Nc1ccccc1OC(F)F)c1ccc(S(=O)(=O)N2CCOCC2)cc1 [C-SIJ01066] | 70 to 100%
O=C(CN1C(=O)c2ccccc2S1(=O)=O)Nc1ccc(S(=O)(=O)N2CCCCCC2)cc1 [C-SIJ04078] | 70 to 100%
CCN(Cc1ccccc1)S(=O)(=O)c1ccc(S(=O)(=O)N2CCOCC2)cc1 [C-SIJ06097] | 70 to 100%
NS(=O)(=O)c1ccc(S(=O)(=O)N2CCOCC2)cc1 [C-SIJ06099] | 30 to 100%
O=CN1CCN(S(=O)(=O)c2ccc(S(=O)(=O)N3CCOCC3)cc2)CC1 [C-SIJ06102] | 30 to 100%
CS(=O)(=O)N1CCN(S(=O)(=O)c2ccc(S(=O)(=O)N3CCOCC3)cc2)CC1 [C-SIJ06103] | 70 to 100%
O=C(O)[C@H]1CCCN(S(=O)(=O)c2ccc(S(=O)(=O)N3CCCCC3)cc2)C1 [C-SIJ06111] | 70 to 100%
COc1ccc(/C=N/NC(=O)Cc2ccc([N+](=O)[O-])cc2)cc1OC [C-SIJ12143] | 70 to 100%
